{"source": "patent USRE34165E", "about": "“Potent thymopentin analogs” (Ortho Pharmaceutical Corporation, priority 1990, dated 1993)", "key": {"[1]": {"test_system": "cell membrane receptor of the intact CEM cell", "assay": "Cyclic-GMP assay: induction of cyclic-GMP production in intact CEM cells", "assay_type": "cell-based, human", "conditions": "for Concentration of c-GMP Produced: 4-5 min at 37° C.; for Result on the cyclic-GMP assay (in words): in comparison with thymopentin", "source_text": "This biological activity is evidenced by an assay measuring induction of cyclic-GMP production in a human T-cell line in comparison with thymopoietin. The induction of c-GMP production by a test peptide in this assay indicates the ability of the test peptide to bind to the thymopoietin receptor site on the cell and induce thymopoietin-like biological activity. […] Because of the expense of preparing peptides and the rapid degradation of peptides often observed in living systems, peptides such as those herein which have increased potency are greatly prized.\nThis assay measures the ability of the test peptide to bind to the cell membrane receptor of the intact CEM cell and selectively stimulate production of cyclic-GMP, as does thymopoietin itself.\nThe CEM cell line was obtained from the American Type Culture Collection and was cultured in RPMI-1640 medium supplemented with 10% heat-inactivated fetal bovine serum, 10% heat-inactivated horse serum, 2 mM L-glutamine, and 50 µg/ml gentamycin at 37° C. in a humid atmosphere containing 5 percent CO2, to a final density of 3-4×10^6 cells/ml. At this concentration, the cells were in the early stationary phase of the growth curve and were judged greater than 90% viable by trypan blue exclusion. The cells were grown for four days and harvested. After harvesting, the cells were washed three times in PBS and were resuspended in RPMI-1640 medium at a concentration of 3.12×10^7 cells/ml. After the cells had been allowed to equilibrate at 37° C. for 30 min, various concentrations of the test peptides were added in a volume of 25 μl of medium to 1 ml of cells, the initial concentration of test compound added being selected to yield the desired final concentration of test peptide in the medium. The test peptide was mixed instantly with the cell suspension. The incubation was allowed to proceed in a shaking water bath at 37° C. for 4-5 min and was then terminated by addition of ice-cold trichloroacetic acid (10%; 1 ml).\nThe cells in TCA were then homogenized and sonicated to release cyclic nucleotide. The resulting suspension was centrifuged at 3000 g for 20 min at 4° C. and the resulting precipitate was dissolved in 0.1N NaOH and sonicated for a further 30 minutes, after which the protein content was determined by the method of Cadman, et al., Anal. Biochem., 96, 21-23 (1979). The TCA was removed from the supernatant fraction by extracting four times with 5 ml of water-saturated diethyl ether. After the final extraction, the remaining traces of ether were removed from the supernatant fraction by heating it for 10 min in a 50° C. water bath. After lyophilization of the extracted supernatant fraction, it was reconstituted in 50 mM acetate buffer, ph 6.2, for radioimmunoassay of cyclic nucleotide using the assay kit NEX-133, New England Nuclear, Boston, Mass. 02113.\nA conventional competition radioimmunoassay against radio labelled cyclic GMP was conducted to determine the amount of cyclic GMP induced by each concentration of test peptide. Results are shown in FIG. 1 and in the following table, in which representative subject peptides have been assayed in comparison with thymopentin (designated \"TP-5\") and a \"nonsense\" peptide H-ASP-ARG-TYR-LYS-VAL-OH."}, "[2]": {"test_system": "isolated thymopoietin cell surface receptor protein from CEM cells", "conditions": "for Displacement of 125I-TP (in words): comparison peptides"}, "[3]": {"conditions": "Concentration of Peptide 10^0 μg/ml"}, "[4]": {"conditions": "Concentration of Peptide 10^1 μg/ml"}, "[5]": {"conditions": "at equivalent concentrations, with thymopoietin 37-45 nonapeptide, 12 h incubation"}, "[6]": {"conditions": "Concentration of Peptide 10^3 μg/ml"}, "[7]": {"conditions": "Concentration of Peptide 10^4 μg/ml"}}, "note": "Like-named read-outs stand apart in the source and are kept apart here. Non-standard residues stand in square brackets, D forms with d. Residues, ends and D or L forms follow the SMILES beside them. No end group written: not given here. Aib = CC(C)(N)C(=O)O", "data": [{"compound": "CC(C)[C@H](NC(=O)[C@H](CC(=O)O)NC(=O)[C@H](CCCCN)NC(=O)[C@@H](N)CCCNC(=N)N)C(=O)N[C@@H](Cc1c[nH]cn1)C(=O)O", "note": "[H--ARG--LYS--ASP--VAL--HIS--OH, Arginyl-Lysyl-Aspartyl-Valyl-Histidine] (H-RKDVH-OH)", "values": [{"measurement": "Concentration of c-GMP Produced", "setting": "[1]; [3]", "result": 0, "unit": "picomoles/ml"}, {"measurement": "Concentration of c-GMP Produced", "setting": "[1]; [4]", "result": 9, "unit": "picomoles/ml"}, {"measurement": "Displacement of 125I-TP relative to that caused by thymopoietin self-displacement", "setting": "[2]; [5]", "result": "at least 50%"}]}, {"compound": "CC(C)[C@H](NC(=O)[C@H](CC(=O)O)NC(=O)[C@H](CCCCN)NC(=O)[C@@H](N)CCCNC(=N)N)C(=O)N[C@@H](Cc1ccccc1)C(=O)O", "note": "[H--ARG--LYS--ASP--VAL--PHE--OH, Arginyl-Lysyl-Aspartyl-Valyl-Phenylalanine] (H-RKDVF-OH)", "values": [{"measurement": "Concentration of c-GMP Produced", "setting": "[1]; [3]", "result": 6, "unit": "picomoles/ml"}, {"measurement": "Concentration of c-GMP Produced", "setting": "[1]; [4]", "result": 9, "unit": "picomoles/ml"}, {"measurement": "Displacement of 125I-TP relative to that caused by thymopoietin self-displacement", "setting": "[2]; [5]", "result": "at least 50%"}]}, {"compound": "CC(C)[C@H](NC(=O)[C@H](CC(=O)O)NC(=O)[C@@H]1CCCN1C(=O)[C@@H](N)CCCNC(=N)N)C(=O)N[C@@H](Cc1ccccc1)C(=O)O", "note": "[H--ARG--PRO--ASP--VAL--PHE--OH, Arginyl-Prolyl-Aspartyl-Valyl-Phenylalanine] (H-RPDVF-OH)", "values": [{"measurement": "Concentration of c-GMP Produced", "setting": "[1]; [3]", "result": 0, "unit": "picomoles/ml"}, {"measurement": "Concentration of c-GMP Produced", "setting": "[1]; [4]", "result": 12, "unit": "picomoles/ml"}, {"measurement": "Displacement of 125I-TP relative to that caused by thymopoietin self-displacement", "setting": "[2]; [5]", "result": "at least 50%"}]}, {"compound": "CC(C)[C@H](NC(=O)[C@H](CCCCN)NC(=O)[C@H](Cc1ccc(O)cc1)NC(=O)[C@H](CCCNC(=N)N)NC(=O)[C@@H](N)CC(=O)O)C(=O)O", "note": "[H--ASP--ARG--TYR--LYS--VAL--OH, H-ASP-ARG-TYR-LYS-VAL-OH, reference compound] (H-DRYKV-OH)", "values": [{"measurement": "Concentration of c-GMP Produced", "setting": "[1]; [6]", "result": 0, "unit": "picomoles/ml"}, {"measurement": "Concentration of c-GMP Produced", "setting": "[1]; [7]", "result": 0, "unit": "picomoles/ml"}, {"measurement": "Concentration of c-GMP Produced", "setting": "[1]; Concentration of Peptide 10^5 μg/ml", "result": 0, "unit": "picomoles/ml"}]}, {"compound": "CC(C)[C@H](NC(=O)[C@H](CC(=O)O)NC(=O)[C@H](CCCCN)NC(=O)[C@@H](N)CCCNC(=N)N)C(=O)N[C@@H](Cc1c[nH]c2ccccc12)C(N)=O", "note": "[H-ARG-LYS-ASP-VAL-TRP-NH2, Arginyl-Lysyl-Aspartyl-Valyl-Tryptophan amide] (H-RKDVW-NH2)", "values": [{"measurement": "Result on the cyclic-GMP assay (in words)", "setting": "[1]", "result": "superior results"}, {"measurement": "Displacement of 125I-TP relative to that caused by thymopoietin self-displacement", "setting": "[2]; [5]", "result": "at least 50%"}]}, {"compound": "CC(C)[C@H](NC(=O)[C@H](CC(=O)O)NC(=O)[C@H](CCCCN)NC(=O)[C@@H](N)CCCNC(=N)N)C(=O)N[C@@H](Cc1c[nH]c2ccccc12)C(=O)O", "note": "[H-ARG-LYS-ASP-VAL-TRP-OH, Arginyl-Lysyl-Aspartyl-Valyl-Tryptophan] (H-RKDVW-OH)", "values": [{"measurement": "Result on the cyclic-GMP assay (in words)", "setting": "[1]", "result": "superior results"}, {"measurement": "Displacement of 125I-TP relative to that caused by thymopoietin self-displacement", "setting": "[2]; [5]", "result": "at least 50%"}]}, {"compound": "CC(=O)N[C@@H](CCCNC(=N)N)C(=O)NC(C)(C)C(=O)N[C@@H](CC(=O)O)C(=O)N[C@H](C(=O)N[C@@H](Cc1ccccc1)C(N)=O)C(C)C", "note": "[N-α-acetyl-ARG-AIB-ASP-VAL-PHE-NH2, Acetyl-Arginyl-α-Aminoisobutyryl-Aspartyl-Valyl-Phenylalaminamide] (Ac-R[Aib]DVF-NH2)", "values": [{"measurement": "Result on the cyclic-GMP assay (in words)", "setting": "[1]", "result": "superior results"}]}, {"compound": "CC(=O)N[C@@H](CCCNC(=N)N)C(=O)N1CCC[C@H]1C(=O)N[C@@H](CC(=O)O)C(=O)N[C@H](C(=O)N[C@@H](Cc1ccccc1)C(N)=O)C(C)C", "note": "[N-α-acetyl-ARG-PRO-ASP-VAL-PHE-NH2, Acetyl-Arginyl-Prolyl-Aspartyl-Valyl-Phenylalanineamide] (Ac-RPDVF-NH2)", "values": [{"measurement": "Result on the cyclic-GMP assay (in words)", "setting": "[1]", "result": "superior results"}]}, {"compound": "CC(C)[C@H](NC(=O)[C@H](CC(=O)O)NC(=O)[C@H](CCCCN)NC(=O)[C@@H](N)CCCN=C(N)N)C(=O)N[C@@H](Cc1ccc(O)cc1)C(=O)O", "note": "[TP-5, thymopentin] (H-RKDVY-OH)", "values": [{"measurement": "Concentration of c-GMP Produced", "setting": "[1]; [3]", "result": 0, "unit": "picomoles/ml"}, {"measurement": "Concentration of c-GMP Produced", "setting": "[1]; [4]", "result": 4.5, "unit": "picomoles/ml"}, {"measurement": "Concentration of c-GMP Produced", "setting": "[1]; Concentration of Peptide 10^2 μg/ml", "result": 9, "unit": "picomoles/ml"}, {"measurement": "Concentration of c-GMP Produced", "setting": "[1]; [6]", "result": 12, "unit": "picomoles/ml"}, {"measurement": "Concentration of c-GMP Produced", "setting": "[1]; [7]", "result": 14, "unit": "picomoles/ml"}]}, {"compound": "C[C@H](N)C(=O)NCC(=O)N[C@H]1CSSC[C@@H](C(=O)O)NC(=O)[C@H](CO)NC(=O)[C@H]([C@@H](C)O)NC(=O)[C@H](Cc2ccccc2)NC(=O)[C@H]([C@@H](C)O)NC(=O)[C@H](CCCCN)NC(=O)[C@H](Cc2c[nH]c3ccccc23)NC(=O)[C@H](Cc2ccccc2)NC(=O)[C@H](Cc2ccccc2)NC(=O)[C@H](CC(N)=O)NC(=O)[C@H](CCCCN)NC1=O", "note": "[somatostatin]", "values": [{"measurement": "Displacement of 125I-TP (in words)", "setting": "[2]", "result": "no detectable displacement"}]}, {"compound": "CC(=O)N[C@@H](CCCNC(=N)N)C(=O)N1CCC[C@H]1C(=O)N[C@@H](CC(=O)O)C(=O)N[C@H](C(=O)N[C@@H](Cc1ccccc1)C(=O)O)C(C)C", "note": "[α-acetyl-ARG--PRO--ASP--VAL--PHE--OH, N^α -Acetyl-Arginyl-Prolyl-Aspartyl-Valyl-Phenylaline] (Ac-RPDVF-OH)", "values": [{"measurement": "Concentration of c-GMP Produced", "setting": "[1]; [3]", "result": 7, "unit": "picomoles/ml"}, {"measurement": "Concentration of c-GMP Produced", "setting": "[1]; [4]", "result": 15, "unit": "picomoles/ml"}, {"measurement": "Displacement of 125I-TP relative to that caused by thymopoietin self-displacement", "setting": "[2]", "result": "at least 50%"}]}, {"compound": "N^α -Acetyl-Arginyl-3,4-dehydro-Prolyl-Aspartyl-Valyl-Tyrosineamide", "values": [{"measurement": "Result on the cyclic-GMP assay (in words)", "setting": "[1]", "result": "superior results"}]}, {"compound": "adrenocorticotropic hormone (SYSMEHFRWGKPVGKKRRPVKVYPNGAEDESAEAFPLEF; Corticotropin; UniProt P01189 138-176, looked up) [ACTH]", "values": [{"measurement": "Displacement of 125I-TP (in words)", "setting": "[2]", "result": "no detectable displacement"}]}, {"compound": "corticotropin-releasing factor (SEEPPISLDLTFHLLREVLEMARAEQLAQQAHSNRKLMEII; ends and bridges not checked; UniProt P06850 154-194, looked up) [CRF]", "values": [{"measurement": "Displacement of 125I-TP (in words)", "setting": "[2]", "result": "no detectable displacement"}]}, {"compound": "facteur thymique serique [FTS]", "values": [{"measurement": "Displacement of 125I-TP (in words)", "setting": "[2]", "result": "no detectable displacement"}]}, {"compound": "growth hormone", "values": [{"measurement": "Displacement of 125I-TP (in words)", "setting": "[2]", "result": "no detectable displacement"}]}, {"compound": "ubiquitin", "values": [{"measurement": "Displacement of 125I-TP (in words)", "setting": "[2]", "result": "no detectable displacement"}]}, {"compound": "β-endorphin (YGGFMTSEKSQTPLVTLFKNAIIKNAYKKGE; Beta-endorphin; UniProt P01189 237-267, looked up)", "values": [{"measurement": "Displacement of 125I-TP (in words)", "setting": "[2]", "result": "no detectable displacement"}]}]}
